Test results reported in patent US20060194819A1, “Activation specific inhibitors of nf-kb and method of treating inflammatory processes in cardio-vascular diseases” (PROCORDE GMBH, priority 2003, published 2006).

Columns and labels:
[1] = Solubility in PBS; format: physicochemical
[2] = molecular target: T1, IKK-complex (Homo sapiens, UniProt O14920+O15111+Q9Y6K9); assay: Cellular IKK kinase assay: HeLa cells treated with compound, TNF alpha stimulation, IKK-complex immunoprecipitated with anti-NEMO-antibody, I kappaB peptide phosphorylation by alpha screen; format: cell-based; conditions: HeLa cells, compound 1 h, TNF alpha 20 ng/ml, alpha screen; read-out: IC50 for inhibition of IKK-activity (I kappaB peptide phosphorylation)
T1 construct: IKK-complex was immunoprecipitated with anti-NEMO-antibody; endogenous in cells; host or cells: HeLa
T1 sequence (O14920 whole entry): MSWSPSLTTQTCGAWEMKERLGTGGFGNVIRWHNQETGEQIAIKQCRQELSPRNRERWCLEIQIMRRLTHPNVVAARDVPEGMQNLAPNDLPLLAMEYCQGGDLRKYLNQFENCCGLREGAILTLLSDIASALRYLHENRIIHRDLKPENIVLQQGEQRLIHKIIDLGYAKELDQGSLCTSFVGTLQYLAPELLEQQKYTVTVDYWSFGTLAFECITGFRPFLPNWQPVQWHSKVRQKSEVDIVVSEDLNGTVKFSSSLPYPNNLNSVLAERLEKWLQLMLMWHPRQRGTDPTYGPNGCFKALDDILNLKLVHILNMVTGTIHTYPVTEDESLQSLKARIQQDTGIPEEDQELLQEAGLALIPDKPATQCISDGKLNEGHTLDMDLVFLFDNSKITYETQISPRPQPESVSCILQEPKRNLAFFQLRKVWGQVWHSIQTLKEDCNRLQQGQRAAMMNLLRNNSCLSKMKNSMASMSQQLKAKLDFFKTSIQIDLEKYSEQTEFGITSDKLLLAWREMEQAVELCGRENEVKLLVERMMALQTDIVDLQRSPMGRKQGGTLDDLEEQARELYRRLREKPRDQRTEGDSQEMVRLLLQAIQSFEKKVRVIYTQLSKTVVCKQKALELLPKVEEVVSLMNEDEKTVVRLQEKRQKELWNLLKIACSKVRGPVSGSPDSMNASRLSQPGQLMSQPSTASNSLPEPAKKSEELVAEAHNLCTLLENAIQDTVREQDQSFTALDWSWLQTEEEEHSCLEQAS
T1 sequence (O15111 whole entry): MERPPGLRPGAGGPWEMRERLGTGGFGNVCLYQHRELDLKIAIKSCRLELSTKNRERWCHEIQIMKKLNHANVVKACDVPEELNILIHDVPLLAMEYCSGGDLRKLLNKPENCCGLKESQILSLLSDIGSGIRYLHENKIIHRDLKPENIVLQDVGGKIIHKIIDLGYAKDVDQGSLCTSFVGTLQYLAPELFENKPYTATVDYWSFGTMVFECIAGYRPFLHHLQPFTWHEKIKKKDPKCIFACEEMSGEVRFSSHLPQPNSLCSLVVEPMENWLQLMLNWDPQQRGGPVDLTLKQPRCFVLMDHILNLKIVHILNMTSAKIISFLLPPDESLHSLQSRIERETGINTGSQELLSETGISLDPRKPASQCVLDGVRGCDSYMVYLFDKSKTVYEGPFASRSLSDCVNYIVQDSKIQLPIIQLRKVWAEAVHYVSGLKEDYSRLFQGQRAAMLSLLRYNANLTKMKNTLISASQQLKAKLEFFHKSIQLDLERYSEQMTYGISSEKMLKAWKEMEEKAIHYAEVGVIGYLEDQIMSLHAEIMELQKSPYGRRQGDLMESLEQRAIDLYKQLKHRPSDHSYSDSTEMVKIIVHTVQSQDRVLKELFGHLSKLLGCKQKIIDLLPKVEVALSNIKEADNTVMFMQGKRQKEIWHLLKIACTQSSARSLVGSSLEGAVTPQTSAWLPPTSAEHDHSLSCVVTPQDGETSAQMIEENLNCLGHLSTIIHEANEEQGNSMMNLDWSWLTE
T1 sequence (Q9Y6K9 whole entry): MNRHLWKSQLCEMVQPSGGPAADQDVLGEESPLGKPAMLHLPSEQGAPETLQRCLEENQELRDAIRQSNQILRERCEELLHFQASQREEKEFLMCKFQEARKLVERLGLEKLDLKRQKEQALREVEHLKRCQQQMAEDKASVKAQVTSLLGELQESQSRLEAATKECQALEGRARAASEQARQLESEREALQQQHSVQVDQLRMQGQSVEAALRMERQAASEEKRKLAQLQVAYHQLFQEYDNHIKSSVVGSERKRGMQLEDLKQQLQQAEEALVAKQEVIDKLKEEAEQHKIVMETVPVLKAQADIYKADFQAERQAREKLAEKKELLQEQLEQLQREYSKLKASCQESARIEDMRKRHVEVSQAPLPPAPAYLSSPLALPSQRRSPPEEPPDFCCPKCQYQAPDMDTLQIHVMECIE
Procedure: Kinase Assay Protocol: HeLa cells were maintained in Dulbecco's modified Eagle's medium (Invitrogen) supplemented with 10% fetal bovine serum, 2 mM L-glutamine, penicillin (50 units/ml) and streptomycin (50 μg/ml). 24 h before treatment with different compounds HeLa cells were plated at a density of 5×10^6 per well in 100-mm cell culture dishes to 90% confluences.
The cells were incubated with different drugs at the concentration indicated for 1 h, washed twice with PBS and stimulated with 20 ng/ml TNF alpha (Roche). After 7 min the cells were washed twice with ice cold PBS followed by scraping and transferring into a 1.5 ml microcentrifuge tube. After centrifugation by 2000 rpm for 2 min by 4° C. the PBS supernatant was removed and 200 μl Lyse-buffer (10 mM Hepes, pH 7.9, 0.1% NP40, 10 mM, 300 mM Sucrose, 10 mM KCl, 15 mM MgCl2, 1 mM DTT, 0.5 mM PMSF and antipain, aprotinin, leupeptin each 0.75 μg/ml (Sigma) was added to the pellet. The resuspended pellet was incubated on ice for 5 min and centrifuged at 13000 g for 30 s. The supernatant, cytosolic extract, was added to 200 μl TNT-buffer (200 mM NaCl, 20 mM Tris/HCl pH 7.5, 1% Triton X-100). Unspecific binding was blocked by incubation with 3 μg of normal rabbit IgG (Sigma) and 6 mg resuspended and prewashed Protein A Sepharose CI-4B (Pharmacia Biotech) for 30 min by 4° C. followed by immunoprecipitation for 1.5 h at 4° C. with 2 μg of anti-NEMO-antibody (Santa Cruz Biotechnology) and 6 mg resuspented and prewashed Protein A Sepharose CI-4B (Parmacia Biotech). […] 6.6 μl of detection-buffer (20 mM Hepes pH 7.5, 100 mM NaCl, 1% Tween, 0.1 mM BSA, 50 μg/ml Protein A-Acceptor beads, 250 μg/ml Streptavidin-Donor beads (both Perkin-Elmer), 4 nM anti-phospho-IKB antibody (Santa Cruz Biotechnology) was dispensed to each well. After incubation for 1.5 h the plate was measured by alpha screen reader (Perkin Elmer). […]

solubility in PBS [1]: only partly soluble | IC50 [2]: 10 to 100 µM
SMILES: CCC(=O)C1=C(C)N=c2s/c(=C/c3cc(C)c(OCc4ccccc4Cl)c(I)c3)c(=O)n2C1c1ccc2c(c1)OCO2 (centres unmarked) [Compound 41]
